≈ marks a conversion by molar mass, not a printed value. Non-standard residues stand in square brackets, D forms with d. Residues, ends and D or L forms follow the SMILES beside them. Orn(N5-OH,N5-Ac) = CC(=O)N(O)CCC[C@H](N)C(=O)O
Assays:
[1] = test system: tetracycline efflux pump (strain KB4 or KB5); assay: Inhibition Assay, plate assay (agar with 5 ng/ml of tetracycline); as to Inhibition Assay response: key: ±: Possible positive; +: Weak positive; ++: Stronger positive; -: Negative; assay type: cell-based, E. coli; details: for response in the Inhibition Assay: plate assay, 5 ng/ml of tetracycline
Description: (§1) To detect tetracyclines, a plate assay is developed that is similar to one described previously (11). Cells are grown in Luria Broth (adjusted with NaOH to pH 7.5) with 25 μg/ml of kanamycin to a cell density of 0.5 absorbance units (600 nm). A 25 ml sample of the culture is harvested by centrifugation and resuspended in 1 ml of broth. The cells are mixed with 25 ml of soft agar (1%, wt/vol) and poured onto 100 ml of LB (pH 7.5)+ kanamycin, within a 22 cm^2 NUNC plate (Corning). Samples are applied by spotting from 2 to 15 μl, or by applying a disc impregnated with a compound, and the plate is incubated for 3-4 hours at 37° C. The plates are overlaid with a solution containing 13.5 mg of 6-bromo-2-naphthyl-β-D-galactopyranoside side and 86.5 mg of fast blue RR (Sigma) dissolved in 2 ml of dimethylsulfoxide, to which 25 ml of soft agar is added. β-Galactosidase is detected by the presence of a purple spot.
Two assays are developed for detecting inhibitors of the tetA gene product (using strain KB5), or the tetK gene product (using strain KB4). In the Inhibition Assay, cells of strain KB4 or KB5 are treated as described in the tetracycline screen above, except that the agar medium contains 5 ng/ml of tetracycline. Alternatively a Liquid Assay is also developed. Cells are first grown in LB (pH 7.5). Then cells are shifted to medium containing 5 ng/ml of tetracycline, and tetracycline-containing samples are added to aliquots. Cells are then incubated and assayed as described for the Tetracycline Assay. […] However, the intracellular concentration is reduced in tetracycline resistant strains due to the action of the efflux pump, so more tetracycline would be required in the medium to accumulate sufficient tetracycline inside the cell to induce. The Inhibition Assay is designed to detect compounds that cause β-galactosidase induction in the presence of sub-inducing levels of tetracycline for a resistant strain.

strain KB4 or KB5 = assay: Synergy Assay, plate assay (agar with 5 μg/ml of tetracycline); assay type: cell-based, E. coli; details: 5 μg/ml of tetracycline
Description: Two types of assays for pump inhibitors are designed using this type of screening organism. The first is a Synergy Assay, which determines the ability of a compound or composition to kill the organism in combination with tetracycline. […] In brief, in a Synergy Assay, the screening cells are treated as described above for the tetracycline assay, except that the agar medium contains 5 μg/ml of tetracycline which is near the MIC for the strains to be used in the screen. […] Alternatively, cells are treated as described above for the tetracycline liquid assay, except that cells are shifted to a medium containing 5 μg/ml of tetracycline.
In the Synergy Assay, cells are treated as above for the plate assay, except that agar medium contains 5 μg/ml of tetracycline, near the MIC for strain KB4 or KB5. […] Alternatively, cells are treated as above for the liquid assay, except that cells are shifted to medium containing 5 μg/ml of tetracycline.

strain KB3ind = assay type: cell-based, E. coli; details: for response in the Tetracycline Assay (β-galactosidase induction): strain KB3ind, plate assay (plate or liquid assay); as to Induction Assay response: key: ±: Possible positive; +: Weak positive; ++: Stronger positive; -: Negative
Description: as §1

NK5031 (λStet158-50) = assay: Plate assay with control strain containing the cI wild type allele; assay type: cell-based, E. coli; details: 3 μl samples, up to 22.5 ng bleomycin, 150 ng mitomycin C or cinodine
[2] = test system: E. coli MC1061 containing pCBSal; assay: MIC (LD 90) of maximally induced tetA (plasmid pCBSal); assay type: cell-based; details: Escherichia coli, read-out: MIC (LD 90) of Maximally Induced tetA, pCBSal
Description: (§2) E. coli MC1061 containing either pGG57, pCBSal or pGG75 were used to determine the MIC (LD 90) for tetracycline as well as six tetracycline analogs. […] MIC studies were performed in the presence of 0.01 mM IPTG for E. coli MC1061 containing pGG57. […] All of these MIC studies were done in duplicate.

[3] = test system: E. coli MC1061 containing pGG57; assay: microbe, parasite or virus in culture; assay type: cell-based; details: Escherichia coli, read-out: MIC (LD 90) of Maximally Induced tetK, pGG57
Description: as §2

[4] = test system: E. coli MC1061 containing pGG75; assay: MIC (LD 90) of maximally induced tetC (plasmid pGG75); assay type: cell-based; details: Escherichia coli, read-out: MIC (LD 90) of Maximally Induced tetC, pGG75
Description: as §2

| Compound | response in the Tetracycline Assay (β-galactosidase induction) (strain KB3ind) | MIC [2] | MIC [3] | MIC [4] | also measured |
| --- | --- | --- | --- | --- | --- |
| CCCCc1ccc(C(=O)O)nc1 [fusaric acid] |  |  |  |  | response in the Inhibition Assay [1]: do not test positive; response in the Synergy Assay (strain KB4 or KB5): do not test positive |
| CO[C@@]12[C@H](COC(N)=O)C3=C(C(=O)C(C)=C(N)C3=O)N1C[C@@H]1N[C@@H]12 [Mitomycin] | No β-galactosidase is detected |  |  |  | Induction Assay response (strain KB3ind): -; Inhibition Assay response ([1]; disc on assay plate): -; β-galactosidase induction in control strain (cI wild type allele) (NK5031 (λStet158-50)): inducing β-galactosidase |
| CN(C)C1C(=O)C(C(N)=O)=C(O)C2(O)C(=O)C3=C(O)c4c(O)cccc4C(C)(O)C3C(O)C12 (stereo not drawn) [oxyTc] |  | > 300 µg/mL | 250 µg/mL (≈ 543 µM) | 300 µg/mL (≈ 652 µM) |  |
| C/C(=C/C(=O)N([O-])CCCC1NC(=O)CNC(=O)C(CO)NC(=O)C(CO)NC(=O)C(CCCN([O-])C(=O)/C=C(/C)CC(=O)O)NC(=O)C(CCCN([O-])C(=O)/C=C(\C)CC(=O)O)NC1=O)CC(=O)O.[Fe+3] (stereo not drawn) [ferrichromeA] |  |  |  |  | response in the Inhibition Assay [1]: test positive; response in the Synergy Assay (strain KB4 or KB5): test positive |
| bleomycin | No β-galactosidase is detected |  |  |  | β-galactosidase induction in control strain (cI wild type allele) (NK5031 (λStet158-50)): inducing β-galactosidase |
| CC(=O)N([O-])CCC[C@@H]1NC(=O)CNC(=O)CNC(=O)CNC(=O)[C@H](CCCN([O-])C(C)=O)NC(=O)[C@H](CCCN([O-])C(C)=O)NC1=O.[Fe+3] [ferrichrome] (cyclo(GGG[Orn(N5-OH,N5-Ac)][Orn(N5-OH,N5-Ac)][Orn(N5-OH,N5-Ac)])) |  |  |  |  | response in the Inhibition Assay [1]: test positive; response in the Synergy Assay (strain KB4 or KB5): test positive |
| CN(C)c1ccc(O)c2c1C[C@H]1C[C@H]3[C@H](N(C)C)C(O)=C(C(N)=O)C(=O)[C@@]3(O)C(O)=C1C2=O [Minocycline] | capable of detecting | 14 µg/mL (≈ 30.6 µM) | 4 µg/mL (≈ 8.74 µM) | 8 µg/mL (≈ 17.5 µM) |  |
| cinodine | No β-galactosidase is detected |  |  |  | β-galactosidase induction in control strain (cI wild type allele) (NK5031 (λStet158-50)): inducing β-galactosidase |
| C[C@H]1c2cccc(O)c2C(O)=C2C(=O)[C@]3(O)C(O)=C(C(N)=O)C(=O)[C@@H](N(C)C)[C@@H]3[C@@H](O)[C@@H]21 [DoxyTc, doxycycline] | capable of detecting | 40 µg/mL (≈ 90 µM) | 7 µg/mL (≈ 15.8 µM) | 20 µg/mL (≈ 45 µM) |  |
| CN(C)[C@@H]1C(=O)C(C(N)=O)=C(O)[C@@]2(O)C(=O)C3=C(O)c4c(O)cccc4C[C@H]3C[C@@H]12 [6-demethyl 6-deoxyTc, 6-demethyl-6-deoxytetracycline] | capable of detecting | 20 µg/mL (≈ 48.3 µM) | 7 µg/mL (≈ 16.9 µM) | 20 µg/mL (≈ 48.3 µM) |  |
| Cc1c2c(c(O)c3c(O)cccc13)C(=O)C1(O)C(O)=C(C(N)=O)C(=O)C(N(C)C)C1C2 (stereo not drawn) [AnhydroTc] |  | 3 µg/mL (≈ 7.04 µM) | 2 µg/mL (≈ 4.69 µM) | 2 µg/mL (≈ 4.69 µM) |  |
| CN(C)[C@@H]1C(O)=C(C(N)=O)C(=O)[C@@]2(O)C(O)=C3C(=O)c4c(O)ccc(Cl)c4[C@@](C)(O)[C@H]3C[C@@H]12 [ChlorTc, chlortetracycline] | capable of detecting | 50 µg/mL (≈ 104 µM) | 40 µg/mL (≈ 83.5 µM) | 40 µg/mL (≈ 83.5 µM) |  |
